Source: PMC6830212, “Crystal structure of the putative cyclase IdmH from the indanomycin nonribosomal peptide synthase/polyketide synthase” (IUCrJ, 2019)

B1: wild-type IdmH (full-length putative indane cyclase from the indanomycin NRPS/PKS pathway) (enzyme, UniProt C5HV10 1-145, looked up)
chain: MAHQPSDTIAGLYEAFNSGDLETLRELIAPDAVIHLPGTAGDAEHPPGTPRDREGWLGVWQFTQAFFPDMTATVQDIVQTGDLVATRCVARGTHSIEFMGVPPTGRPFEMTMLNMSRVRDGRIVEHWTISDNVTMLAQLGVKASL
notes: IdmH, Streptomyces antibioticus NRRL 8167, full-length idmH gene (ACN69984.1) amplified from genomic DNA; 145 amino acids as printed; Cloned in pET-28a at NdeI; residues of the thrombin site may remain at the N-terminus after cleavage (surmised); also called full-length IdmH; native IdmH; source: E. coli BL21(DE3), purified (HisTrap, thrombin cleavage, HiTrap Q, Superdex 75 SEC); not shown: His6, …

Legend:
IdmH = biological target: T1, IdmH (Streptomyces antibioticus, UniProt C5HV10); assay: 1H-15N HSQC-TROSY chemical shift perturbation titration; type: binding; conditions: 0.2 mM 15N-labelled IdmH, 0-200 uM indanomycin; 20 mM Tris pH 7.3, 50 mM NaCl, 1 mM DTT, 25 C; proposed active-site pocket; proposed (not shown) reaction product
T1 construct: full length (145 residues), N-terminal His6 tag with thrombin site (pET-28a), E. coli BL21(DE3); homodimer

[1] = biological target: the molecule itself; assay: SEC + other: LC/MS; oligomeric state of purified, tag-cleaved wild-type IdmH; conditions of this analysis not told in the text (Supplementary Fig. S4)

Row | Molecule | 1H-15N HSQC-TROSY chemical shift perturbation titration (IdmH) | stoichiometry N [1]
1 | CC/C(=C\C=C\[C@@H]1C=C[C@@H]2[C@@H](CC)CC[C@H]2[C@@H]1C(=O)c1ccc[nH]1)[C@@H]1O[C@@H]([C@@H](C)C(=O)O)CC[C@@H]1C [compound 1, indanomycin] | indanomycin can bind to IdmH in the proposed active site | –
2 | B1 | – | 2
